# ChEMBL document CHEMBL4196018, “New antitumor anthra[2,3-b]furan-3-carboxamides: Synthesis and structure-activity relationship” (Eur J Med Chem, 2018)
# Activity calls are given as the source filed them. The calls are words filed in the database; no cut-off is given here.
# Tests used:
# HCT-116 [1] = assay: Antiproliferative activity against p53 knockout human HCT116 cells after 72 hrs by MTT assay; type: functional, cell-based; conditions: HCT-116, 72 h
# [2] = Resistance index, ratio of IC50 for p53 knockout human HCT116 cells to IC50 for human HCT116 cells; type: functional
# K562 [3] = assay: Antiproliferative activity against human K562 cells after 72 hrs by MTT assay; type: functional, cell-based; conditions: K562, 72 h
# HCT-116 [4] = assay: Antiproliferative activity against human HCT116 cells after 72 hrs by MTT assay; type: functional, cell-based; conditions: HCT-116, 72 h
# CCRF-CEM = assay: Antiproliferative activity against human CEM cells after 72 hrs by MTT assay; type: functional, cell-based
# HeLa = assay: Antiproliferative activity against human HeLa cells after 72 hrs by MTT assay; type: functional, cell-based
# L1210 = assay: Antiproliferative activity against mouse L1210 cells after 48 hrs by MTT assay; type: functional, cell-based; conditions: L1210, 48 h
# [5] = Antiproliferative activity against human K562/4 cells after 72 hrs by MTT assay; type: functional, cell-based; conditions: K562/4, 72 h
# [6] = Resistance index, ratio of IC50 for human K562/4 cells to IC50 for human K562 cells; type: functional
# TMK-1 [7] = assay: Induction of apoptosis in human TMK1 cells at 1 uM after 24 hrs by Annexin V-FITC staining based flow cytometry relative to control; type: functional
# Lymphocyte = assay: Cytotoxicity against human lymphocytes assessed as reduction in cell viability at 25 uM after 72 hrs by MTT assay; type: cell-based
# [8] = Substrate activity at P-gp in human K562/4 cells assessed as test compound accumulation at 2 uM after 1 to 24 hrs by flow cytometry; type: ADME, cell-based
# TMK-1 [9] = assay: Induction of apoptosis in human TMK1 cells after 24 hrs by Annexin V-FITC staining based flow cytometry; type: functional, cell-based
# [10] = molecular target: T1, DNA topoisomerase 1 (Homo sapiens) (UniProt P11387); assay: Inhibition of human topoisomerase-1 using supercoiled pBR322 DNA as substrate after 30 mins by agarose gel electrophoresis method
# T1 sequence (whole entry): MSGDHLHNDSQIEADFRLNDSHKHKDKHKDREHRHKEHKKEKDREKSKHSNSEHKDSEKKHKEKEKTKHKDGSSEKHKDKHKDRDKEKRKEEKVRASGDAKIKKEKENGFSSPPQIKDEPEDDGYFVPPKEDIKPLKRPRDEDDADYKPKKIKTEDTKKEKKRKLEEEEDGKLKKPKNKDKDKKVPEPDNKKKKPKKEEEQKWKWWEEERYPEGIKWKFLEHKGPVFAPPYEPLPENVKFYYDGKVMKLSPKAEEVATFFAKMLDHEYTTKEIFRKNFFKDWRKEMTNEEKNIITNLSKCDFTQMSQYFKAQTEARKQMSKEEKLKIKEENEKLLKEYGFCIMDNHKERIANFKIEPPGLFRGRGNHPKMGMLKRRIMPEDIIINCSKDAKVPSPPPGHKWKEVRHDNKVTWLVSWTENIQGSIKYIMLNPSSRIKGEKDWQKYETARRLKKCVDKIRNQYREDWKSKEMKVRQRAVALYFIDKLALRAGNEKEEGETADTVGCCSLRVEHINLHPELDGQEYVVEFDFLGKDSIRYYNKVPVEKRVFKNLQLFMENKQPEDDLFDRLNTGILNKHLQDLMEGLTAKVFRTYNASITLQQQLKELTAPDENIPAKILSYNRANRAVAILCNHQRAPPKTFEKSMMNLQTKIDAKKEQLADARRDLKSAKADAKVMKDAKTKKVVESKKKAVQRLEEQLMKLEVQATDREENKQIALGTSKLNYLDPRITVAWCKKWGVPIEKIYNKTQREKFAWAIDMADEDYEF
# TMK-1 [11] = assay: Induction of ROS generation in human TMK1 cells at 0.1 to 1 uM after 30 mins by H2DCFDA staining based flow cytometry; type: functional, cell-based
# MKN-45 [12] = assay: Induction of apoptosis in human MKN45 cells at 1 uM after 24 hrs by Annexin V-FITC staining based flow cytometry relative to control; type: functional
# MKN-45 [13] = assay: Induction of ROS generation in human MKN45 cells at 0.1 to 1 uM after 30 mins by H2DCFDA staining based flow cytometry; type: functional, cell-based
# MKN-45 [14] = assay: Induction of apoptosis in human MKN45 cells after 24 hrs by Annexin V-FITC staining based flow cytometry; type: functional, cell-based
# [15] = Drug uptake in human K562 cells at 2 uM after 1 to 24 hrs by flow cytometry; type: ADME, cell-based; conditions: k562, 2 µM
# [16] = Substrate activity at P-gp in human K562/4 cells assessed as test compound accumulation at 2 uM after 1 to 24 hrs in presence of P-gp inhibitor tariquidar by flow cytometry; type: ADME, cell-based
# [17] = Substrate activity at P-gp in human K562/4 cells assessed as test compound accumulation at 1 uM after 1 to 24 hrs by flow cytometry; type: ADME, cell-based
# [18] = molecular target: T1, DNA topoisomerase 1 (Homo sapiens); assay: Inhibition of human topoisomerase-1 at 1 to 30 uM using supercoiled pBR322 DNA as substrate after 30 mins by agarose gel electrophoresis method
# Homo sapiens = organism: Homo sapiens; assay: Cell cycle arrest in human K562/4 cells at 1 uM up to 48 hrs by propidium iodide staining based flow cytometry; type: functional
# K562 [19] = assay: Cell cycle arrest in human K562 cells at 1 uM up to 48 hrs by propidium iodide staining based flow cytometry; type: functional
Compound,IC50 (HCT-116 [1]) [µM],Ratio IC50 [2],IC50 (K562 [3]) [µM],IC50 (HCT-116 [4]) [µM],IC50 (CCRF-CEM) [µM],IC50 (HeLa) [µM],IC50 (L1210) [µM],IC50 [5] [µM],Ratio IC50 [6],other results
Cc1oc2c(N)c3c(c(N)c2c1C(=O)N1CC[C@H](N)C1)C(=O)c1ccccc1C3=O,5.4,0.7,9.2,7.6,4,3.7,3.1,8.3,0.9,–
Cc1oc2c(O)c3c(c(O)c2c1CN1CC[C@H](N)C1)C(=O)c1ccccc1C3=O,2.4,0.8,1.3,3.2,3.9,2.3,4.4,1.8,1.4,–
O=C1c2ccccc2C(=O)c2c1c(O)c1occ(C(=O)NC3CCNCC3)c1c2O,4,1,1.1,4.2,0.8,1.1,0.9,2.5,2.3,–
O=C1c2ccccc2C(=O)c2c1c(O)c1occ(C(=O)NC3CCNC3)c1c2O (racemic),1,1.3,0.9,0.8,1,2,1,4.5,5,–
Cc1oc2c(Cl)c3c(c(Cl)c2c1C(=O)N1CC[C@H](N)C1)C(=O)c1ccccc1C3=O,4,0.9,3.8,4.5,3.5,5,1.5,5.3,1.4,–
CN[C@H]1CCN(C(=O)c2coc3c(O)c4c(c(O)c23)C(=O)c2ccccc2C4=O)C1,5.8,1,2.9,5.9,4.6,5,3.5,5.3,1.9,–
COc1c2c(c(OC)c3c(C(=O)N4CC[C@H](N)C4)c(C)oc13)C(=O)c1ccccc1C2=O,50,1.2,28.6,41,23.2,27.9,20,38.7,1.4,–
N[C@H]1CCN(C(=O)c2coc3c(O)c4c(c(O)c23)C(=O)c2ccccc2C4=O)C1,3.4,1.2,1.1,2.8,1.3,1,0.7,1.5,1.3,Activity (TMK-1 [7]): 60 - 90%; Activity (Lymphocyte): Non-Toxic; Activity [8]: Not Active; Activity (TMK-1 [9]): Dose-dependent effect; inhibition [10]: Dose-dependent effect; Activity (TMK-1 [11]): Active; Activity (MKN-45 [12]): 60 - 90%; Activity (MKN-45 [13]): Active; Activity (MKN-45 [14]): Dose-dependent effect; Drug uptake [15]: Active
CN1CCN(NC(=O)c2coc3c(O)c4c(c(O)c23)C(=O)c2ccccc2C4=O)CC1,0.8,1,1.1,0.8,3.2,2.2,2,1.5,1.4,–
COc1cccc2c1C(=O)c1c(O)c3c(c(O)c1C2=O)C[C@@](O)(C(=O)CO)C[C@@H]3O[C@H]1C[C@H](N)[C@H](O)[C@H](C)O1 [DOXORUBICIN],–,–,–,–,–,–,–,9.8,–,Activity [16]: Not Active; Activity [8]: Active; Drug uptake [15]: Active
Cc1oc2c(O)c3c(c(O)c2c1CN1CC[C@@H](N)C1)C(=O)c1ccccc1C3=O,2.2,1,1.2,2.2,4.3,2.8,4.3,1.9,1.6,–
COc1cc2c(cc1OC)CN(CCc1ccc(NC(=O)c3cc(OC)c(OC)cc3NC(=O)c3cnc4ccccc4c3)cc1)CC2,–,–,–,–,–,–,–,–,–,Activity [17]: Not Active
N[C@H]1CCN(C(=O)c2c(C(F)(F)F)oc3c(O)c4c(c(O)c23)C(=O)c2ccccc2C4=O)C1,4.6,0.9,3.6,5.3,4,4.4,1.7,2.2,0.6,Activity [8]: Not Active; inhibition [18]: inactive; Activity (Homo sapiens): Active; Activity (K562 [19]): Active; Drug uptake [15]: Active
N[C@@H]1CCN(C(=O)c2coc3c(O)c4c(c(O)c23)C(=O)c2ccccc2C4=O)C1,5.1,1,2.3,5,4,3.3,2.5,3.7,1.6,inhibition [10]: Dose-dependent effect
NC1CCCN(C(=O)c2coc3c(O)c4c(c(O)c23)C(=O)c2ccccc2C4=O)C1 (racemic),2.5,0.8,1.3,3,4,2.3,2,2.6,2,–
Cc1oc2c(O)c3c(c(O)c2c1C(=O)N1CC[C@H](N)C1)C(=O)c1ccccc1C3=O,1.3,1.1,0.9,1.2,0.5,0.7,0.6,1.4,1.5,Activity (TMK-1 [7]): 60 - 90%; inhibition [18]: Active; Activity (TMK-1 [9]): Dose-dependent effect; Activity (TMK-1 [11]): Active; Activity (MKN-45 [12]): 60 - 90%; Activity (MKN-45 [13]): Active; Activity (MKN-45 [14]): Dose-dependent effect
NC1CCN(C(=O)c2coc3c(O)c4c(c(O)c23)C(=O)c2ccccc2C4=O)CC1,10,1.7,2.3,6,4,4.2,2.4,9.6,4.2,–
